Reference: the METLIN SMRT retention time set (Domingo-Almenara et al. 2019)

Assay: gradient 5% acetonitrile 3 min, to 50% in 2 min, to 85% in 15 min, held 3 min, 100 µL/min
Details: column: Zorbax Extend-C18 2.1 x 50 mm; eluents: water / acetonitrile, 0.1% formic acid
Outline: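 The mobile phases were water and acetonitrile, each with 0.1% formic acid, pumped at 100 μL/min through a Zorbax Extend-C18 column (2.1 × 50 mm, 1.8 μm). Pure standards were injected as mixtures of ~100 molecules and detected by a quadrupole time-of-flight mass spectrometer in positive and negative ionization mode. Retention time came from computationally picked adduct peaks, each inspected by hand.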

RP-LC retention time | SMILES
894 s | O=C(Cn1ccn2nc(-c3ccc(F)cc3)c(CO)c2c1=O)Nc1cc(F)ccc1Cl
792 s | O=C(C1CCN(S(=O)(=O)c2ccc(-c3noc(-c4ccccn4)n3)cc2)CC1)N1CCCC1
824 s | COc1ccc(-c2nnc(N3CCC(C(=O)NCc4cc(F)ccc4F)CC3)o2)cc1
632 s | Cc1nn(CC(=O)N2CCN(c3ccccn3)CC2)c(=O)c2nc(-c3ccccc3)sc12
750 s | Cc1cc(C(=O)NCC2CCN(C(=O)Nc3ccc(F)cc3)CC2)c(C)o1
935 s | COc1ccc(CNC(=O)C2(C)CCCN(S(=O)(=O)c3cccc(C)c3)C2)cc1 (configuration not stated)
760 s | O=C(COc1ccccc1)Nc1c(C(=O)N2CCN(c3ccccn3)CC2)oc2ccccc12
788 s | CCOc1ccc(S(=O)(=O)N2CCCC(C(=O)NCC3CCCO3)C2)cc1 (configuration not stated)
713 s | CN1C(=O)Cc2ccccc2C1C(=O)NCc1ccccc1F (configuration not stated)
951 s | CCOc1ccc(NC(=O)CN2C(=O)CC(c3cccs3)=Nc3ccccc32)cc1
794 s | FC1(F)CN[C@H](c2nc(-c3ccccc3)no2)C1
850 s | Cc1cc(C(=O)NC(C)c2ccccc2)n(-c2ccccc2)n1 (configuration not stated)
1320 s | Cc1cc(NS(=O)(=O)c2cc3n(c2)CCN(C(C)C)C3=O)ccc1F
681 s | Cc1cc(C(=O)N2CCC3(CCC3OCC(N)=O)CC2)c(C)o1 (configuration not stated)
615 s | O=C(c1cccc(N2CCNC(c3ccccc3)C2)n1)N1CCCCC1 (configuration not stated)
630 s | O=C(c1cccnc1)c1cc(-c2ccccn2)c(=O)n2ccccc12
934 s | COc1ccc(-c2nnc(COc3ccc(NC(=O)c4ccc(Br)o4)cc3)o2)cc1
879 s | CCOC(=O)c1cnc2c(-c3ccccc3OC)c(C)nn2c1N
907 s | O=C(Cn1cccc1-c1nnc(C2CCC2)o1)NCc1ccccc1Cl
832 s | Cc1ccc2[nH]cc(CCNC(=O)C3CCCN(C(=O)c4[nH]c(C)cc4C)C3)c2c1 (configuration not stated)
1020 s | COc1ccccc1Nc1c(-c2ccc(Cl)cc2)nc2cnccn12
801 s | CNC(=O)NC1CCN(c2nc3cccnc3n(Cc3ccccc3)c2=O)CC1

RP-LC retention time | SMILES
750 s | CCSc1nnc(-c2nn(C)c3c2CN(C(=O)c2ccc(F)cc2)CC3)n1C
868 s | COc1ccc(CC(=O)N2CCCC2c2cc(C(C)C)on2)cc1 (configuration not stated)
1040 s | COc1ccc(-c2nc(CN(c3ccccc3)S(=O)(=O)c3cccs3)c(C)o2)cc1OC
542 s | NS(=O)(=O)c1ccc(CCNC(=O)c2ccc(=O)[nH]n2)cc1
803 s | Cc1ccccc1CNC(=O)CN1CCN(Cc2ccc(F)cc2)C1=O
696 s | Cc1cc(NS(=O)(=O)c2cc3n(c2)CCCN(C)C3=O)ccc1F
558 s | CCCC1c2nccn2CCCN1C(=O)c1ocnc1C (configuration not stated)
664 s | Cc1cc(C)c(S(=O)(=O)N2CCc3nn(CC(C)C)c(=O)n3CC2)c(C)c1
1130 s | Cc1nn(-c2ccc(F)cc2)c2nc(N3CCCC(C(=O)NCc4cccc(F)c4)C3)sc12 (configuration not stated)
555 s | Cc1cc(=O)n(CC(=O)Nc2ccc(N(C)C)cc2)c(N2CCOCC2)n1
781 s | Cn1cc(C(CNC(=O)Nc2ccc(Br)cc2F)c2cccnc2)c2ccccc21 (configuration not stated)
1170 s | CCOC(=O)c1ccc(NC(=O)c2cc(C(C)C)n3nccc3n2)cc1
821 s | COC(=O)c1ncn2c1C(=O)N(CCC1=CCCCC1)C(C)(C(=O)NCc1ccccc1)C2 (configuration not stated)
802 s | COc1ccc(C(C)NC(=O)C2c3ccccc3CCN2C(=O)C2CC2)cc1OC (configuration not stated)
991 s | O=S(=O)(c1ccc2c(c1)CCCC2)N1CCN(Cc2nnnn2-c2ccccc2)CC1
698 s | CCC1Oc2ccc(C)cc2N(CC(=O)NCCN2CCc3ccccc3C2)C1=O (configuration not stated)
788 s | CCc1onc(C)c1C1CCCN1C(=O)c1c(F)cccc1F (configuration not stated)
1070 s | COc1ccc(CCNS(=O)(=O)c2cccc(-c3nc(-c4ccccc4)no3)c2)cc1OC
942 s | Cc1ccc(SCC(=O)N2CCN(c3ccccc3)CC2)cc1
918 s | O=C(Nc1ccc(F)cc1)C(=O)c1c[nH]c2ccccc12
802 s | COCCCN(CC(=O)N1CCc2sccc2C1COc1ccc(F)cc1)C(C)=O (configuration not stated)
806 s | CC(=O)Nc1onc(C)c1-c1ccc(C)c(S(=O)(=O)Nc2ccc(F)cc2C)c1

RP-LC retention time | SMILES
902 s | O=S(=O)(NCc1ccco1)c1cc(-c2nnc(-c3ccccc3)o2)ccc1F
1290 s | CCOc1ccc(-n2nc(-c3nc(-c4ccc5c(c4)OCO5)no3)c3ccccc3c2=O)cc1
714 s | COc1ccc(-c2nc3cc(C)ccn3c2NC(=O)COc2ccc(Cl)cc2)cc1OC
648 s | COc1ccc(Br)c(C(=O)N2CCc3[nH]cnc3C23CCCC3)c1
841 s | Cc1ccc2c(c1)C(=O)NC1(CCN(C(=O)Cc3ccccc3Cl)CC1)N2C
1000 s | CCc1ccc(C(=O)N2CCN(C(=O)c3nnn4c3COC(c3ccc(C)cc3)C4)CC2)cc1 (configuration not stated)
790 s | COCCNc1nc(-c2ccc(C(C)(C)C)cc2)nc2ccccc12
573 s | CCCCN1CCN(C(=O)c2ccc(-c3ccnc(N4CCCC4)n3)cc2)CC1
584 s | c1cc(-c2cnn3cc(-c4ccc(OCCN5CCCCC5)cc4)cnc23)ccn1
614 s | CC1CCN(c2ncc3c(n2)CCC(C(=O)NC(C)c2ccccn2)C3)CC1 (configuration not stated)
1140 s | CC1CCCN(S(=O)(=O)c2cc(C(=O)NCCC3=CCCCC3)n(C)c2)C1 (configuration not stated)
741 s | COc1ccccc1NC(=O)C1CCc2nc(N3CCOCC3)ncc2C1 (configuration not stated)
676 s | CCc1nnc(-c2cc(S(=O)(=O)NCCc3ccc(S(N)(=O)=O)cc3)cn2C)o1
619 s | Cc1nc(C(=O)N2CCN(Cc3ccc(C)c(C)c3)CC2)c(C)o1
1080 s | COc1ccc(-c2noc(-c3nc(-c4ccc(OC)c(OC)c4)no3)n2)cc1OC
941 s | Cc1cccc(NC(=O)c2cn(C)nc2S(=O)(=O)N2CCSCC2)c1
675 s | Fc1ccccc1CN1CCCN(c2ncccc2-c2nc(C3CC3)no2)CC1
933 s | CCOC(=O)c1ccc(N2C=C(C(=O)OC)S(=O)(=O)c3ccc(F)cc32)cc1
1090 s | CCN(CC)S(=O)(=O)c1ccc(Cl)c(-c2nnc(-c3ccc(OC)cc3)o2)c1
797 s | CN1CCCCCCN(C(=O)c2ccsc2)[C@H]2CCC[C@H]2C1=O
625 s | COc1cc(NC(=O)N2CCC(CN3CC(C)CC(C)C3)CC2)cc(OC)c1OC (configuration not stated)
558 s | Cc1nn(C2CCS(=O)(=O)C2)c(C)c1N1CCN(CC(=O)Nc2ccccc2F)CC1 (configuration not stated)

RP-LC retention time | SMILES
773 s | CC(C)(C)OC(=O)NCc1nnc(C(F)(F)F)n1-c1ccccc1
871 s | COC(=O)c1sc2ccccc2c1NC(=O)c1ccc([N+](=O)[O-])o1
706 s | CCOc1cc(=O)n2c(c1C(=O)Nc1ccc(OC)cc1OC)CCCC2
807 s | O=C(Nc1cnn(-c2ncc(N3CCCCC3)cn2)c1)C1CCCC1
898 s | COc1cccc(-n2ccc(=O)c(-c3nc(-c4ccc(F)cc4)no3)n2)c1
641 s | COc1ccc(S(=O)(=O)NC2CCc3nnc(C)n3CC2)cc1Cl (configuration not stated)
663 s | COc1ccc(C(O)CN2CCN(c3ccc(C)cc3)CC2)cc1 (configuration not stated)
962 s | Cc1cccc(N2CCN(c3ccc4cc(S(=O)(=O)N5CCCC5)ccc4n3)CC2C)c1 (configuration not stated)
775 s | O=c1c(Nc2ccc(F)c(F)c2)nc2ccncc2n1Cc1ccccc1
1170 s | Cc1ccc(-c2noc(Cn3c(=O)n(CCc4ccccc4)c(=O)c4sccc43)n2)cc1
702 s | COc1cccc(CNC(=O)[C@@H]2[C@H](c3cc(OC)c(OC)c(OC)c3)c3cc4c(cc3[C@H](O)[C@H]2CO)OCO4)c1OC
796 s | CCc1nc(-c2ccc3c(c2)CCN3C(=O)Cc2ccc(NC(C)=O)cc2)no1
697 s | Cn1c(=O)n(C)c2cc(CNc3ccc(C(=O)O)c(Cl)c3)ccc21
1020 s | COC(=O)C1=C(C)NC(C)=C(C(=O)OCCN2CCN(C(c3ccccc3)c3ccccc3)CC2)C1c1cccc([N+](=O)[O-])c1 (configuration not stated)
897 s | O=C(CSc1nnc(-c2ccco2)n1-n1cccc1)Nc1cccc(C(F)(F)F)c1
571 s | Cc1nn2cnnc2c(C)c1CCC(=O)NCCN(C)Cc1ccccc1
946 s | CC(C)(C)NC(=O)Nc1nnc(SCc2c(F)cccc2Cl)s1
719 s | CC(C)c1nc(-n2cccc2)sc1C(=O)NCCCN1CCCCC1
609 s | CCn1ccc2cc(S(=O)(=O)N3CCCC(C(=O)N4CCN(c5ccccn5)CC4)C3)ccc21 (configuration not stated)

SMILES | RP-LC retention time
Cc1nc(C(=O)NC2CCCCC2)c(C)n1C1CCN(C)CC1 | 555 s
CCN(CC)C(=O)c1ccc2c(c1)N(CC(=O)NC(C)C)C(=O)C1CCCCN21 (configuration not stated) | 735 s
